Source: US8691811B2, “Quinazolinone linked pyrrolo[2,1-c][1,4]benzodiazepine hybrids as potential anticancer agents and process for the preparation thereof” (Council of Scientific & Industrial Research, priority 2008, dated 2014)

Experiments:
[1] = tested on: Breast cancer cell lines; test: NCI cytotoxicity (SRB, 48 h), breast panel; format: cell-based, human; conditions: Breast panel average
Method: (§1) The C8-linked quinazolinone-PBD hybrid (5d) has been tested against sixty human tumour cell lines derived from nine cancer types (leukemia, non-small cell lung cancer, colon cancer, CNS cancer, melanoma, ovarian cancer, renal cancer, prostate cancer and breast cancer) as per NCI protocol. For each compound, dose response curves for individual cell lines have been measured at a minimum of five concentrations at 10 fold dilutions. A protocol of 48 h continuous drug exposure has been used, and a sulforhodamine B (SRB) protein assay was used to estimate cell viability or growth. The concentration for 50% cell growth inhibition (GI50), total cell growth inhibition (TGI, 0% growth) and 50% cell death (LC50, […]) compared with the control has been calculated (Table-1). Compound 5d has been evaluated for their in vitro cytotoxicity in sixty cell lines from nine human cancer types of lung (Hop-62, NCI-H226, NCI-H522), leukemia (K-562, SR), colon (HCT-116, HCT-15, HCC-2998), CNS(SF-539), melanoma (SK-MEL-5, UACC-62, M14), ovarian (IGROV1), renal (A498), prostate (PC3) breast (BT-549, MDA-MB-435, HS578T) origin. The results are expressed as percent of cell growth determined relative to that of untreated control cells (Table 2). The representative compound 5d has shown significant cytotoxicity against some cancer cell lines.

[2] = tested on: SR; test: NCI cytotoxicity (SRB, 48 h), SR; format: cell-based, human; conditions: leukemia
Method: as §1

[3] = tested on: TK-10; test: NCI cytotoxicity (SRB, 48 h), TK-10; format: cell-based, human; conditions: TK-10, renal
Method: as §1

[4] = tested on: NCI-H522; test: NCI cytotoxicity (SRB, 48 h), NCI-H522; format: cell-based, human; conditions: NCI-H522, non-small cell lung
Method: as §1

[5] = tested on: HCC-2998; test: NCI cytotoxicity (SRB, 48 h), HCC-2998; format: cell-based, human; conditions: HCC-2998, colon
Method: as §1

[6] = tested on: NCI-H23; test: NCI cytotoxicity (SRB, 48 h), NCI-H23; format: cell-based, human; conditions: NCI-H23, non-small cell lung
Method: as §1

[7] = tested on: HL-60(TB); test: NCI cytotoxicity (SRB, 48 h), HL-60(TB); format: cell-based, human; conditions: leukemia
Method: as §1

[8] = tested on: OVCAR-5; test: NCI cytotoxicity (SRB, 48 h), OVCAR-5; format: cell-based, human; conditions: OVCAR-5, ovarian
Method: as §1

[9] = tested on: CNS cancer cell lines; test: NCI cytotoxicity (SRB, 48 h), CNS panel; format: cell-based, human; conditions: CNS panel average
Method: as §1

[10] = tested on: sixty human tumour cell lines; test: NCI in vitro cytotoxicity screen (SRB, 48 h), all cell lines; format: cell-based; conditions: 48 h exposure
Method: as §1

[11] = tested on: OVCAR-8; test: NCI cytotoxicity (SRB, 48 h), OVCAR-8; format: cell-based, human; conditions: OVCAR-8, ovarian
Method: as §1

[12] = tested on: NCI-H322M; test: NCI cytotoxicity (SRB, 48 h), NCI-H322M; format: cell-based, human; conditions: non-small cell lung
Method: as §1

[13] = tested on: UACC-257; test: NCI cytotoxicity (SRB, 48 h), UACC-257; format: cell-based, human; conditions: UACC-257, melanoma
Method: as §1

[14] = tested on: A549/ATCC; test: NCI cytotoxicity (SRB, 48 h), A549/ATCC; format: cell-based, human; conditions: non-small cell lung
Method: as §1

[15] = tested on: Melanoma cell lines; test: NCI cytotoxicity (SRB, 48 h), melanoma panel; format: cell-based, human; conditions: Melanoma panel average
Method: as §1

[16] = tested on: CAKI-1; test: NCI cytotoxicity (SRB, 48 h), CAKI-1; format: cell-based, human; conditions: CAKI-1, renal
Method: as §1

[17] = tested on: NCI/ADR-RES; test: NCI cytotoxicity (SRB, 48 h), NCI/ADR-RES; format: cell-based, human; conditions: breast
Method: as §1

[18] = tested on: SF-268; test: NCI cytotoxicity (SRB, 48 h), SF-268; format: cell-based, human; conditions: SF-268, CNS
Method: as §1

[19] = tested on: duplex-form calf thymus DNA (CT-DNA); test: Thermal denaturation studies with calf thymus DNA; format: binding; conditions: [PBD]:[DNA] molar ratio 1:5, CT-DNA 100 μM, ligand 20 μM, pH 7.00
Method: Compounds have been subjected to thermal denaturation studies with duplex-form calf thymus DNA (CT-DNA) using a modification of a reported procedure. Working solutions in aqueous buffer ([…] NaH2PO4/Na2HPO4, 1 mM Na2EDTA, pH 7.00+0.01). containing CT-DNA (100 μm in phosphate) and the PBD (20 μm) have been prepared by addition of concentrated PBD solutions in DMSO to obtain a fixed [PBD]/[DNA] molar ratio of 1:5. The DNA-PBD solutions have been incubated at 37° C. for 0 and 18 hrs prior to analysis. Samples have been monitored at 260 nm using a Beckman DU-800 spectrophotometer fitted with high performance temperature controller, and heated at 1° C. min^−1 in the 40-110° C. range. DNA helix→coil transition temperatures (Tm) have been obtained from the maxima in the d(A260)/dT derivative plots. Drug-induced alterations in DNA melting behavior are given by: ΔTm=Tm(DNA+PBD)−Tm(DNA alone), where the Tm value for the PBD-free CT-DNA is 68.5±0.01.
The DNA-binding for these novel C8-linked quinazolinone-PBD hybrids has been examined by thermal denaturation studies using calf thymus (CT) DNA. […] Data for 5b, 5c, 5d, and 5k, 5l, 5m and DC-81 are included in Table 5 for comparison.

[20] = tested on: ACHN; test: NCI cytotoxicity (SRB, 48 h), ACHN; format: cell-based, human; conditions: renal
Method: as §1

[21] = tested on: OVCAR-3; test: NCI cytotoxicity (SRB, 48 h), OVCAR-3; format: cell-based, human; conditions: OVCAR-3, ovarian
Method: as §1

[22] = tested on: HCT-15; test: NCI cytotoxicity (SRB, 48 h), HCT-15; format: cell-based, human; conditions: HCT-15, colon
Method: as §1

[23] = tested on: Leukemia cell lines; test: NCI cytotoxicity (SRB, 48 h), leukemia panel; format: cell-based, human; conditions: Leukemia panel average
Method: as §1

[24] = tested on: OVCAR-4; test: NCI cytotoxicity (SRB, 48 h), OVCAR-4; format: cell-based, human; conditions: OVCAR-4, ovarian
Method: as §1

[25] = tested on: LOX IMVI; test: NCI cytotoxicity (SRB, 48 h), LOX IMVI; format: cell-based, human; conditions: melanoma
Method: as §1

[26] = tested on: Renal cancer cell lines; test: NCI cytotoxicity (SRB, 48 h), renal panel; format: cell-based, human; conditions: Renal panel average
Method: as §1

[27] = tested on: Colon cancer cell lines; test: NCI cytotoxicity (SRB, 48 h), colon panel; format: cell-based, human; conditions: Colon panel average
Method: as §1

[28] = tested on: PC-3; test: NCI cytotoxicity (SRB, 48 h), PC-3; format: cell-based, human; conditions: PC-3, prostate
Method: as §1

## COc1cc2c(cc1OCCCCCOc1ccc(-n3c(C)nc4ccccc4c3=O)cc1)N=C[C@@H]1CCCN1C2=O [5d, 7-methoxy-8-{5-[4-(2-methyl-4-oxo-3,4-dihydro-3-quinazolinyl)phenoxy]pentyloxy-}-(11aS)-1,2,3,11a-tetrahydro-5H-pyrrolo[2,1-c][1,4]benzodiazepine-5-one]
[1]
  Log10 GI50: −6.66 mol/L
  Log10 LC50: −4.90
[2]
  GI50: 110 nM
[3]
  GI50: 310 nM
[4]
  GI50: 120 nM
[5]
  GI50: 260 nM
[6]
  GI50: 230 nM
[7]
  GI50: 180 nM
[8]
  GI50: 330 nM
[9]
  Log10 GI50: −6.59 mol/L
  Log10 LC50: −4.88
[10]; bound over all sixty cell lines, read-out: GI50 value against sixty cell lines in nine cell panels
  GI50: < 1730 nM
[10]; human tumour cell lines
  Log10 GI50 mean graph midpoint (MG_MID): −6.63
  Log10 LC50 mean graph midpoint (MG_MID): −5.21
  Log10 TGI mean graph midpoint (MG_MID): −6.15
[11]
  GI50: 340 nM
[12]
  GI50: 260 nM
[13]
  GI50: 390 nM
[14]
  GI50: 230 nM
[15]
  Log10 GI50: −6.65 mol/L
  Log10 LC50: −5.90
[16]
  GI50: 190 nM
[17]
  GI50: 1730 nM
[18]
  GI50: 260 nM
[19]; 0 h
  ΔTm after incubation at 37° C. for 0 h: 1.1 °C
[19]; 18 h
  ΔTm after incubation at 37° C. for 18 h: 2.3 °C
[20]
  GI50: 290 nM
[21]
  GI50: 200 nM
[22]
  GI50: 1090 nM
[23]
  Log10 GI50: −6.85 mol/L
  Log10 LC50: −5.30
[24]
  GI50: 370 nM
[25]
  GI50: 150 nM
[26]
  Log10 GI50: −6.62 mol/L
  Log10 LC50: −5.09
[27]
  Log10 GI50: −6.59 mol/L
  Log10 LC50: −5.49
[28]
  GI50: 290 nM
